Laboratory results: the NIST ThermoML archive (doi:10.1016/j.jct.2014.07.026)
± gives the expanded uncertainty stated by the source.

Assay: mn = molality of the nth substance listed, in mol/kg
Details: 100 kPa, Liquid; for mass density: Vibrating tube method; for speed of sound: Frequency=2 MHz, Linear variable-path acoustic interferometer

CCCCn1cc[n+](C)c1.CC[C@H](C)[C@H](N)C(=O)[O-] [1-butyl-3-methyl-1H-imidazolium L-isoleucinate] + O
Details | mass density [kg/m3] | speed of sound [m/s]
293.15 K, m1 = 0.02906 | 999.041 ± 0.11 | –
293.15 K, m1 = 0.04398 | 999.456 ± 0.11 | –
293.15 K, m1 = 0.05752 | 999.834 ± 0.11 | –
293.15 K, m1 = 0.0722 | 1000.24 ± 0.11 | –
293.15 K, m1 = 0.07899 | 1000.43 ± 0.11 | –
293.15 K, m1 = 0.1182 | 1001.49 ± 0.11 | –
293.15 K, m1 = 0.1456 | 1002.23 ± 0.11 | –
293.15 K, m1 = 0.1662 | 1002.78 ± 0.11 | –
293.15 K, m1 = 0.1765 | 1003.05 ± 0.11 | –
293.15 K, m1 = 0.2502 | 1004.97 ± 0.11 | –
293.15 K, m1 = 0.2937 | 1006.09 ± 0.11 | –
293.15 K, m1 = 0.3356 | 1007.15 ± 0.11 | –
293.15 K, m1 = 0.3802 | 1008.26 ± 0.11 | –
298.15 K, m1 = 0.02906 | 997.851 ± 0.11 | –
298.15 K, m1 = 0.04398 | 998.255 ± 0.11 | –
298.15 K, m1 = 0.0472 | – | 1507.8 ± 2.5
298.15 K, m1 = 0.05752 | 998.616 ± 0.11 | –
298.15 K, m1 = 0.0722 | 999.019 ± 0.11 | –
298.15 K, m1 = 0.07899 | 999.193 ± 0.11 | –
298.15 K, m1 = 0.1029 | – | 1519.2 ± 2.5
298.15 K, m1 = 0.1182 | 1000.22 ± 0.11 | –
298.15 K, m1 = 0.1456 | 1000.93 ± 0.11 | –
298.15 K, m1 = 0.1481 | – | 1528.4 ± 2.5
298.15 K, m1 = 0.1662 | 1001.47 ± 0.11 | –
298.15 K, m1 = 0.1765 | 1001.73 ± 0.11 | –
298.15 K, m1 = 0.1974 | – | 1538.3 ± 2.5
298.15 K, m1 = 0.2422 | – | 1547.2 ± 2.5
298.15 K, m1 = 0.2502 | 1003.6 ± 0.11 | –
298.15 K, m1 = 0.2927 | – | 1557.1 ± 2.5
298.15 K, m1 = 0.2937 | 1004.66 ± 0.11 | –
298.15 K, m1 = 0.3356 | 1005.72 ± 0.11 | –
298.15 K, m1 = 0.3455 | – | 1567.6 ± 2.5
298.15 K, m1 = 0.3802 | 1006.75 ± 0.11 | –
298.15 K, m1 = 0.3987 | – | 1578.2 ± 2.5
298.15 K, m1 = 0.4518 | – | 1588.5 ± 2.6
298.15 K, m1 = 0.5064 | – | 1599.2 ± 2.6
303.15 K, m1 = 0.02906 | 996.433 ± 0.11 | –
303.15 K, m1 = 0.04398 | 996.821 ± 0.11 | –
303.15 K, m1 = 0.05752 | 997.168 ± 0.11 | –
303.15 K, m1 = 0.0722 | 997.554 ± 0.11 | –
303.15 K, m1 = 0.07899 | 997.73 ± 0.11 | –
303.15 K, m1 = 0.1182 | 998.731 ± 0.11 | –
303.15 K, m1 = 0.1456 | 999.436 ± 0.11 | –
303.15 K, m1 = 0.1662 | 999.965 ± 0.11 | –
303.15 K, m1 = 0.1765 | 1000.2 ± 0.11 | –
303.15 K, m1 = 0.2502 | 1002 ± 0.11 | –
303.15 K, m1 = 0.2937 | 1003.05 ± 0.11 | –
303.15 K, m1 = 0.3356 | 1004.06 ± 0.11 | –
303.15 K, m1 = 0.3802 | 1005.08 ± 0.11 | –
308.15 K, m1 = 0.03034 | 994.828 ± 0.11 | –
308.15 K, m1 = 0.0467 | 995.242 ± 0.11 | –
308.15 K, m1 = 0.05983 | 995.575 ± 0.11 | –
308.15 K, m1 = 0.07535 | 995.962 ± 0.11 | –
308.15 K, m1 = 0.09204 | 996.388 ± 0.11 | –
308.15 K, m1 = 0.121 | 997.102 ± 0.11 | –
308.15 K, m1 = 0.1452 | 997.702 ± 0.11 | –
308.15 K, m1 = 0.1832 | 998.629 ± 0.11 | –
308.15 K, m1 = 0.2191 | 999.468 ± 0.11 | –
308.15 K, m1 = 0.2631 | 1000.51 ± 0.11 | –
308.15 K, m1 = 0.2977 | 1001.31 ± 0.11 | –
308.15 K, m1 = 0.3367 | 1002.21 ± 0.11 | –
308.15 K, m1 = 0.3802 | 1003.17 ± 0.11 | –
313.15 K, m1 = 0.03034 | 992.995 ± 0.11 | –
313.15 K, m1 = 0.0467 | 993.401 ± 0.11 | –
313.15 K, m1 = 0.05983 | 993.731 ± 0.11 | –
313.15 K, m1 = 0.07535 | 994.106 ± 0.11 | –
313.15 K, m1 = 0.09204 | 994.515 ± 0.11 | –
313.15 K, m1 = 0.121 | 995.217 ± 0.11 | –
313.15 K, m1 = 0.1452 | 995.792 ± 0.11 | –
313.15 K, m1 = 0.1832 | 996.685 ± 0.11 | –
313.15 K, m1 = 0.2191 | 997.538 ± 0.11 | –
313.15 K, m1 = 0.2631 | 998.53 ± 0.11 | –
313.15 K, m1 = 0.2977 | 999.299 ± 0.11 | –
313.15 K, m1 = 0.3367 | 1000.18 ± 0.11 | –
313.15 K, m1 = 0.3802 | 1001.15 ± 0.11 | –
